Reference: a compilation of properties of binary mixtures (doi:10.1007/s10953-023-01258-3)

Assay: xn = mol fraction of the nth substance listed
Conditions: 101 kPa

Cn1cc[n+](CCCN)c1.F[B-](F)(F)F + CS(C)=O
Conditions | electrical conductivity [S/m] | viscosity [mPa·s]
288.15 K, x1 = 0.1003 | 0.829 | 17.63
288.15 K, x1 = 0.2 | 0.632 | 34.87
288.15 K, x1 = 0.2997 | 0.465 | 54.65
288.15 K, x1 = 0.3997 | 0.288 | 75.94
288.15 K, x1 = 0.4998 | 0.187 | 98.4
288.15 K, x1 = 0.5999 | 0.124 | 122.2
288.15 K, x1 = 0.7001 | 0.078 | 147.4
288.15 K, x1 = 0.8109 | 0.044 | 176.7
288.15 K, x1 = 0.8998 | 0.023 | 201.6
288.15 K, x1 = 1 | 0.011 | 231.2
293.15 K, x1 = 0.1003 | 0.943 | 13.32
293.15 K, x1 = 0.2 | 0.716 | 26.44
293.15 K, x1 = 0.4998 | 0.222 | 76.63
293.15 K, x1 = 0.7001 | 0.097 | 116.9
293.15 K, x1 = 0.8109 | 0.056 | 140.8
293.15 K, x1 = 1 | 0.018 | 185.4
298.15 K, x1 = 0.2 | 0.81 | 20.51
298.15 K, x1 = 0.2997 | 0.609 | 32.66
298.15 K, x1 = 0.3997 | 0.395 | 45.88
298.15 K, x1 = 0.4998 | 0.268 | 60.22
298.15 K, x1 = 0.5999 | 0.186 | 76.06
298.15 K, x1 = 0.7001 | 0.122 | 93.45
298.15 K, x1 = 0.8109 | 0.072 | 113.4
298.15 K, x1 = 0.8998 | 0.046 | 130.1
303.15 K, x1 = 0.1003 | 1.22 | 7.961
303.15 K, x1 = 0.2 | 0.919 | 16.1
303.15 K, x1 = 0.3997 | 0.462 | 36.37
303.15 K, x1 = 0.4998 | 0.317 | 47.87
303.15 K, x1 = 0.5999 | 0.228 | 60.72
303.15 K, x1 = 1 | 0.04 | 121.1
308.15 K, x1 = 0.1003 | 1.37 | 6.38
308.15 K, x1 = 0.2 | 1.05 | 13.1
308.15 K, x1 = 0.2997 | 0.799 | 20.89
308.15 K, x1 = 0.3997 | 0.533 | 29.16
308.15 K, x1 = 0.4998 | 0.37 | 38.73
308.15 K, x1 = 0.5999 | 0.271 | 49.63
308.15 K, x1 = 0.7001 | 0.183 | 61.64
308.15 K, x1 = 0.8998 | 0.082 | 87.11
313.15 K, x1 = 0.2 | 1.17 | 10.81
313.15 K, x1 = 0.2997 | 0.894 | 17.08
313.15 K, x1 = 0.3997 | 0.617 | 24.03
313.15 K, x1 = 0.4998 | 0.435 | 31.72
313.15 K, x1 = 0.7001 | 0.221 | 50.72
313.15 K, x1 = 0.8998 | 0.105 | 72.01
313.15 K, x1 = 1 | 0.072 | 83.06
318.15 K, x1 = 0.1003 | 1.71 | 4.406
318.15 K, x1 = 0.2 | 1.32 | 8.853
318.15 K, x1 = 0.2997 | 1.01 | 14.22
318.15 K, x1 = 0.4998 | 0.506 | 26.45
318.15 K, x1 = 0.5999 | 0.378 | 33.63
318.15 K, x1 = 0.8109 | 0.183 | 51.83
318.15 K, x1 = 0.8998 | 0.134 | 60.04
318.15 K, x1 = 1 | 0.094 | 69.26
323.15 K, x1 = 0.1003 | 1.91 | 3.679
323.15 K, x1 = 0.2 | 1.47 | 7.468
323.15 K, x1 = 0.2997 | 1.13 | 11.79
323.15 K, x1 = 0.3997 | 0.81 | 16.67
323.15 K, x1 = 0.5999 | 0.446 | 28.21
323.15 K, x1 = 0.7001 | 0.314 | 35.29
323.15 K, x1 = 0.8109 | 0.223 | 43.46
323.15 K, x1 = 0.8998 | 0.17 | 50.38
328.15 K, x1 = 0.2997 | 1.26 | 10.06
328.15 K, x1 = 0.4998 | 0.659 | 18.73
328.15 K, x1 = 0.5999 | 0.515 | 24.2
328.15 K, x1 = 0.7001 | 0.369 | 30.06
328.15 K, x1 = 0.8109 | 0.269 | 37.19
328.15 K, x1 = 0.8998 | 0.21 | 43.13
328.15 K, x1 = 1 | 0.159 | 50.12
333.15 K, x1 = 0.1003 | 2.3 | 2.79
333.15 K, x1 = 0.2 | 1.78 | 5.508
333.15 K, x1 = 0.3997 | 1.04 | 12.05
333.15 K, x1 = 0.4998 | 0.749 | 16.07
333.15 K, x1 = 0.5999 | 0.593 | 20.41
333.15 K, x1 = 0.7001 | 0.431 | 25.32
333.15 K, x1 = 0.8109 | 0.323 | 31.21
333.15 K, x1 = 0.8998 | 0.258 | 36.19
333.15 K, x1 = 1 | 0.203 | 42.31
338.15 K, x1 = 0.1003 | 2.53 | 2.4
338.15 K, x1 = 0.2 | 1.97 | 4.865
338.15 K, x1 = 0.2997 | 1.55 | 7.311
338.15 K, x1 = 0.4998 | 0.849 | 13.77
338.15 K, x1 = 0.5999 | 0.682 | 17.48
338.15 K, x1 = 0.7001 | 0.496 | 21.74
338.15 K, x1 = 0.8998 | 0.312 | 31.24
343.15 K, x1 = 0.2 | 2.17 | 4.241
343.15 K, x1 = 0.2997 | 1.71 | 6.401
343.15 K, x1 = 0.3997 | 1.3 | 8.856
343.15 K, x1 = 0.4998 | 0.948 | 11.78
343.15 K, x1 = 0.7001 | 0.572 | 19.03
343.15 K, x1 = 0.8109 | 0.449 | 23.52
343.15 K, x1 = 0.8998 | 0.374 | 27.44
343.15 K, x1 = 1 | 0.308 | 32.15
348.15 K, x1 = 0.1003 | 3.02 | 2.048
348.15 K, x1 = 0.2 | 2.37 | 3.722
348.15 K, x1 = 0.2997 | 1.88 | 5.565
348.15 K, x1 = 0.3997 | 1.46 | 7.954
348.15 K, x1 = 0.4998 | 1.07 | 10.3
348.15 K, x1 = 0.5999 | 0.877 | 13.38
348.15 K, x1 = 0.7001 | 0.656 | 16.16
348.15 K, x1 = 0.8109 | 0.524 | 20.12
348.15 K, x1 = 0.8998 | 0.445 | 23.5
348.15 K, x1 = 1 | 0.374 | 27.51
353.15 K, x1 = 0.1003 | 3.27 | 1.997
353.15 K, x1 = 0.2 | 2.58 | 3.564
353.15 K, x1 = 0.2997 | 2.07 | 5.199
353.15 K, x1 = 0.4998 | 1.19 | 9.541
353.15 K, x1 = 0.5999 | 0.978 | 12.09
353.15 K, x1 = 0.7001 | 0.749 | 14.98
353.15 K, x1 = 0.8109 | 0.608 | 18.65
353.15 K, x1 = 0.8998 | 0.522 | 21.71
353.15 K, x1 = 1 | 0.457 | 25.41

CS(C)=O + Cn1cc[n+](CCCN)c1.F[B-](F)(F)F
x2 = 0
Conditions | viscosity [mPa·s]
288.15 K | 2.605
293.15 K | 2.318
298.15 K | 2.089
303.15 K | 1.886
308.15 K | 1.717
313.15 K | 1.575
318.15 K | 1.447
323.15 K | 1.341
333.15 K | 1.164
338.15 K | 1.097
343.15 K | 1.034
348.15 K | 0.981
353.15 K | 0.934
